What was measured:
[1] = tested on: MRL (1 pr/1 pr) mice with nephritis; experiment: Mice SLE model-1: histopathological observations of kidney (MC and DP glomeruli); type: in vivo; details: 4 weeks
Method: As SLE model, 17 weeks old male MRL (1 pr/1 pr) mice were used, while C57BL/6 mice with the same age and sex were used as normal control. As agents, DS or low molecular weight heparin (LMWHep, Fragmin) prepared according to a method in reference example 1 was dissolved in sterile physiological saline solution on use.
(§1) Blood samples were taken from 17 weeks old mice, only MRL mice with nephritis whose level of blood urea nitrogen (BUN) were high at the nearly same level were selected and divided into 4 groups, each group consisting of 5 mice. Sterile physiological saline solution was administered in one group as non-treated control group, 5 mg/kg of DS, 25 mg/kg of DS and 1 mg/kg of LMWHep were administered into tail vein in another 3 groups, once per day and five times per week. […] Serum and plasma taken were used for determination of BUN, creatinine and fibrinogen and kidneys were used for histopathological examination.

[2] = set-up: species or system SD male rats; details: rat, in vivo
Method: X represents overlapping ◯ and ●.
Dermatan sulfate derived from crest and dermatan sulfate derived from bovine intestine (see reference example 2 in WO95/09188) were administered into tail vein of SD male rats and changes with the passage of time in the residual level of dermatan sulfate in blood were determined and the residual rate thereof to the initial level of dermatan sulfate on administration was calculated (see example 1 in the above International publication). […] Thus, since dermatan sulfate derived from crest or dermatan sulfate with the equivalent physical properties has a long life span in blood and sustained anti-inflammatory effects, a large dosage thereof is not required for the treatment and dermatan sulfate derived from crest or equivalent thereof is the most preferable.

[3] = tested on: MRL (1 pr/1 pr) mice with nephritis; experiment: Mice SLE model-1: effects on renal function (serum BUN, creatinine); type: in vivo; details: once per day, five times per week, 4 weeks
Method: as §1, with “As agents, DS or low molecular weight heparin ([…], Fragmin) prepared according to a method in reference example 1 was dissolved in sterile physiological saline solution on use. Blood” for “Blood”, “LMWHep” left out, “examination. […] In FIG. 3b, * means that there is a significant difference with p<0.05 from non-treated control group by Bonferroni examination. Both of BUN and creatinine level of non-treated control group were higher than those of normal control group(C57BL/6), which made it clear that renal function thereof was impaired.” for “examination.”

[4] = tested on: MRL (1 pr/1 pr) mice with nephritis; experiment: Mice SLE model-1: histopathological change of renal artery (angiitis); type: in vivo; details: for angiitis intermediate degree, number of individual / angiitis serious degree, number of individual / angiitis slight degree, number of individual: 5 mice
[5] = tested on: MRL (1 pr/1 pr) mice with nephritis; experiment: Mice SLE model-1: fibrinogen level in blood; type: in vivo
[6] = tested on: Cri; CD-1 mice; experiment: Toxicity test by single intravenous administration; type: in vivo
Method: Toxicity test by single intravenous administration of dermatan sulfate(1) Experimental method
As experimental animals, five weeks old female and male Cri; CD-1 mice (Japanese Charles-river (n=5 each) were used. The DS solution obtained by the same method as in reference example 1 was made isotonic using sterile distilled water and sterile physiological saline solution and single 2000 mg/kg of DS was administered intravenously into tail vein in mice and clinical observations were carried out for 14 days.

[7] = tested on: Lewis rats with experimental allergic encephalomyelitis; experiment: Rat experimental allergic encephalomyelitis (EAE), multiple sclerosis model; type: in vivo; details: 5 mg DS i.p. once a day since third day after immunization
[8] = tested on: MRL (1 pr/1 pr) mice; details: single administration of 20 mg/kg endoxan i.p. once a week, 8 weeks
Method: (§2) Ten weeks old male MRL (1 pr/1 pr) mice was used as experimental animals and DS prepared according to reference example 1 was used as an agent by dissolving it in sterile physiological saline solution on use.
(§3) Sterile physiological saline solution was administered in negative control group (non-treated group).
At the age of 10 weeks old, body weight of animals were weighed and blood samples were taken for determination of serum BUN (urea nitrogen) and serum creatinine. […] DS was daily, 5 times per week (neither on Saturday or on Sunday), administered into tail vein in mice using 1 ml disposable syringe at the dose level of 25 mg/kg/day. […] During administration, animals were daily observed carefully. After 8 weeks, blood samples were taken under anesthesia with Nembutal and animals were killed by exsanguination. Then, serum creatinine level, spleen weight and the weight of mesenteric lymph node were measured.

[9] = tested on: MRL (1 pr/1 pr) mice; details: single administration of 10 mg/kg endoxan
Method: as §2, §3
DS was daily, 5 times per week (neither on Saturday or on Sunday), administered into tail vein in mice using 1 ml disposable syringe at the dose level of 25 mg/kg/day. […] During administration, animals were daily observed carefully. After 8 weeks, blood samples were taken under anesthesia with Nembutal and animals were killed by exsanguination. Then, serum creatinine level, spleen weight and the weight of mesenteric lymph node were measured.
Treatment for enlarged spleen in MRL mice was tried. […] The dose of DS was 25 mg/kg in any case.

## sodium salt of dermatan sulfate [DS]
[1]; 5 mg/kg
  ratio of DP glomeruli (number of DP glomeruli/total number of glomeruli): clearly decreased in a dose-dependent manner
  ratio of MC glomeruli (number of MC glomeruli/total number of glomeruli): slightly increased
[1]; 25 mg/kg
  ratio of DP glomeruli (number of DP glomeruli/total number of glomeruli): clearly decreased in a dose-dependent manner
  ratio of MC glomeruli (number of MC glomeruli/total number of glomeruli): significantly increased
[2]
  residual rate of dermatan sulfate in blood: about 10%
  residual rate of dermatan sulfate in blood, compared with dermatan sulfate derived from bovine intestine: twice as much
[3]; 5 mg/kg tail vein
  BUN level: slightly improved
  creatinine level: slightly improved
[3]; 25 mg/kg tail vein
  BUN level: slightly improved
[3]; 25 mg/kg tail vein, p<0.05 vs non-treated control
  creatinine level: significantly improve
[4]; 5 mg/kg group
  histopathological evaluation of angiitis of renal artery, versus non-treated group: not a big difference
  angiitis intermediate degree, number of individual: 2
  angiitis serious degree, number of individual: 3
  angiitis slight degree, number of individual: 0
[4]; 25 mg/kg group
  histopathological evaluation of angiitis of renal artery: individual with serious degree decreased and individual with intermediate and slight degree increased
  angiitis intermediate degree, number of individual: 3
  angiitis serious degree, number of individual: 1
  angiitis slight degree, number of individual: 1
[5]; 5 mg/kg group
  increase of fibrinogen level in blood: suppressed in a dose-dependent manner
[5]; 25 mg/kg group
  increase of fibrinogen level in blood: suppressed in a dose-dependent manner
[6]; single 2000 mg/kg i.v. tail vein, 5 female and 5 male mice
  death after 14 days observation: no death
[6]; single i.v. tail vein, mice, 14 days observation
  lethal dose: more than 2000 mg/kg
[7]
  mean onset day: 9.5±0.5
[7]; p<0.05 vs control group
  accumulated clinical scores: 12.4±1.7

## O=P1(N(CCCl)CCCl)NCCCO1 (stereo not drawn) [endoxan, Cyclophosphamide]
[8]
  serum creatinine level, compared with negative control group: did not exhibit any effect
[9]
  spleen weight, compared with negative control group: did not give any effect

## dermatan sulfate [reference compound]
[2]
  residual rate of dermatan sulfate in blood: scarcely detected

## low molecular weight heparin [LMWHep, reference compound]
[1]; 1 mg/kg
  ratio of DP glomeruli (number of DP glomeruli/total number of glomeruli): such an effect was not recognized
  ratio of MC glomeruli (number of MC glomeruli/total number of glomeruli): slightly increased
[3]; 1 mg/kg tail vein
  BUN level: slightly improved
  creatinine level: slightly improved
[4]; 1 mg/kg group
  histopathological evaluation of angiitis of renal artery, versus non-treated group: not a big difference
  angiitis intermediate degree, number of individual: 1
  angiitis serious degree, number of individual: 4
  angiitis slight degree, number of individual: 0
[5]; 1 mg/kg group
  suppression of increase of fibrinogen level in blood: did not scarcely recognized

Reference: US6537977B1, “Anti-inflammatory agent” (Seikagaku Corporation, priority 1995, dated 2003)
